Patent US20230115176A1 (Ra Pharmaceuticals, Inc., priority 2019, published 2023)
Values after ≈ are worked out from the molar mass of the structure shown.

How the values were obtained:
Human C5 [1] = molecular target: T1, Human C5 (Homo sapiens, UniProt P01031); assay: Red blood cell (RBC) hemolysis assay, luminescent (Example 13, Table 22); format: cell-based; conditions: sheep EA cells, […] C5-depleted human serum, 0.5 nM human C5, 1 hour 37° C., luminescence
T1 construct: purchased Complement Technology
Text: Compound CU0136 is a racemic mixture of Compound CU0186 and CU0187. Numbers in parenthesis following compound numbers indicate alternate enantiomers (as distinguished by retention time during chromatographical separation).

[2] = Kinetic solubility in PBS pH 7.4, HPLC-UV (Example 21, Table 27); format: physicochemical; conditions: phosphate buffered saline, aqueous buffer, kinetic from dmso stock, 0.5 M PBS, shaken minimum 24 h at approximately 25° C., HPLC-UV 270 nm
Method in brief: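 10 mM DMSO stock diluted into 0.05 M PBS pH 7.4 (5% DMSO final), in triplicate, shaken ≥24 h at ~25 °C, then filtered by centrifugation. Supernatant concentration by HPLC-UV at 270 nm against external DMSO standards (15.6–500.0 μM).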

[3] = Permeability assay, unidirectional transport, Papp (Example 30, Table 34); format: in vitro ADME, canine; conditions: dog, pH 7.4; MDCK-WT cell monolayers, A-to-B, 3 μM test compound, 37° C., duplicate determinations
Description: (§1) Permeability assays were carried out to provide a preliminary indication of suitability for oral dosing and compound permeability across the blood brain barrier. Unidirectional and bidirectional compound transport across Madin Darby canine kidney (MDCK) cell monolayers was assessed. For unidirectional transport assessment, transport across MDCK wild type (MDCK-WT) cell monolayers was assessed. For bidirectional transport, transport across MDCK-MDR1 cell monolayers was assessed. MDCK-MDR1 cells express the MDR1 gene encoding the P-glycoprotein (P-gp) efflux protein.
(§2) MDCK-WT and MDCK-MDR1 cells were plated onto permeable polycarbonate supports in 12-well Costar transwell plates and allowed to grow and differentiate for 3 days. After 3 days in culture, the culture medium (DMEM supplemented with 10% FBS) was removed from both sides of the transwell inserts and cells were rinsed with warm HBSS. After the rinse step, the chambers were filled with warm transport buffer (HBSS containing 10 mM HEPES, 0.25% BSA, pH 7.4) and the plates were pre-incubated at 37° C. for 30 minutes prior to TEER (Trans Epithelial Electric Resistance) measurements.
(§3) The buffer in the donor chamber (apical side for A-to-B assay, basolateral side for B-to-A assay) was removed and replaced with the working solution (3 μM test compound and 10 μM for control compounds in transport buffer). The plates were then placed at 37° C. under light agitation. At designated time points (30, 60 and 90 min), an aliquot of transport buffer from the receiver chamber was removed and replenished with fresh transport buffer. Samples were quenched with ice-cold ACN containing internal standard and then centrifuged to pellet protein. Resulting supernatants were further diluted with 50/50 ACN/H2O (Atenolol diluted in just water) and submitted for LC-MS/MS analysis. Apparent permeability (Pap) values were calculated from duplicate determinations. Atenolol and propranolol were tested as low and […] permeability references.
Papp values indicate extent of compound permeation across monolayers.

[4] = system: P-glycoprotein (P-gp, MDR1); assay: Permeability assay, bidirectional transport, efflux ratio (Example 30, Table 34); format: in vitro ADME, canine; conditions: dog, MDCK-MDR1, pH 7.4; read-out: MDCK-MDR efflux ratio
Description: as §1, §2, §3
Efflux ratios were calculated for bidirectional transport across MDCK-MDR1 cell monolayers as an indication of compound efflux by P-gp. The efflux ratio is calculated using the ratio of mean Papp values for B to A transport to mean Papp values for A to B transport [Papp(BA)/Papp(AB)].

[5] = molecular target: T2, human C5 complement protein (Homo sapiens, UniProt P01031); assay: Surface plasmon resonance (SPR), immobilized human C5, 37° C. (Example 18, Table 24); format: binding; conditions: lowest value obtained where a range of concentrations was analyzed
[6] = molecular target: T2, human C5 complement protein; assay: Surface plasmon resonance (SPR), immobilized human C5, 37° C. (Example 23, Table 28); format: binding; conditions: lowest value obtained where a range of concentrations was analyzed (Table 28)
Human C5 [7] = molecular target: T1, Human C5; assay: Red blood cell (RBC) hemolysis assay, luminescent (Example 24, Table 29); format: cell-based; conditions: sheep EA cells, […] C5-depleted human serum, 0.5 nM human C5, 1 hour at 37° C., luminescence (Table 29)
Text: (§4) Numbers in parenthesis following the compound number indicate alternate enantiomers (as distinguished by retention time during chromatographical separation).

Human C5 [8] = molecular target: T1, Human C5; assay: Red blood cell (RBC) hemolysis assay, luminescent (Example 28, Table 32); format: cell-based; conditions: sheep EA cells, 1.5% C5-depleted human serum, 0.5 nM human C5, 1 hour at 37° C., luminescence (Table 32)
[9] = molecular target: T2, human C5 complement protein; assay: Surface plasmon resonance (SPR), immobilized human C5, 37° C. (Example 27, Table 31); format: binding; conditions: lowest value obtained where a range of concentrations was analyzed (Table 31)
Human C5 [10] = molecular target: T1, Human C5; assay: Surface plasmon resonance (SPR), compounds on immobilized human C5 (Example 2, Table 5); format: binding; conditions: lowest value where a range of compound concentrations were analyzed
purified human C5 = purified human C5 (Homo sapiens, UniProt P01031); assay: Red blood cell hemolysis assay, optical, absorbance 412 nm (Example 3, Table 6); format: cell-based; conditions: antibody-sensitized sheep erythrocytes, 1.5% human C5 depleted sera, 0.5 nM human C5; average where replicates
Description: Experiments were carried out using a red blood cell (RBC) hemolysis assay to assess compound inhibition of RBC lysis. […] The assay was carried out using 1.5% human C5 depleted sera and 0.5 nM purified human C5.
GVB++ buffer (Complement Technology, Tyler, Tex.) was heated at 37° C. for a minimum of 20 minutes. The human C5 depleted sera and purified human C5 were rapidly thawed at 37° C. and then stored on ice or wet ice, respectively. The compound stock (10 mM, DMSO) was serially diluted in 100% DMSO to obtain ten 6-fold dilutions before addition of GVB++. Sera dilution was prepared by adding 5 mL of GVB++ to a 15 mL conical tube, removing 600 μL of the GVB++ and adding 600 μL of the 100% sera. The tube was mixed by inverting three times. A volume of 25 μL of the diluted sera was added to each well so that the final concentration of sera in the well was 1.5%. C5 dilution was prepared by adding 5 mL of GVB++ to a 15 mL conical tube, removing 4 μL of the GVB++ and adding 4 μL of the C5 stock. The tube was mixed by inverting three times. A volume of 25 μL was added to each well so that the final amount of C5 was 0.5 nM in each well. The antibody-sensitized sheep erythrocytes (EAs) were centrifuged at 1,000× gravity at 22° C. for 3 minutes. The supernatant was pipetted off without disrupting the pellet. The pellet was then resuspended in GVB++ with the same volume removed. Resuspended EAs were mixed by gently inverting the tube.
Five controls were run on each plate: (1) EAs only=100 μL EAs+50 μL GVB++ with 4% DMSO+50 μL GVB++; (2) EA+Sera=100 μL EAs+50 μL GVB++ with 4% DMSO+25 μL Sera dilution+25 μL GVB++; (3) EA+C5=100 μL EAs+50 μL GVB++ with 4% DMSO+25 μL C5 dilution+25 μL GVB++; (4) EA+Sera+C5=100 μL EAs+50 μL GVB++ with 4% DMSO+25 μL Sera dilution+25 μL C5; (5) GVB++ Only=200 μL GVB++. Other wells included: GVB++ with 4% DMSO=20 μL DMSO+480 μL GVB++. All samples were analyzed in duplicate. The compound dose response curve was generated using samples prepared with 100 μL EA+50 μL compound dilution+25 μL C5 dilution+25 μL sera dilution.
Test plates were prepared by adding 100 μL of EAs, 50 μL of compound dilution, 25 μL of sera dilution, and 25 μL of C5 dilution to individual wells of a 96-well tissue culture-treated clear microtitre plate (USA Scientific, Ocala, Fla.) and resuspending by pipetting up and down three times. The samples were incubated at 37° C. for one hour. At the completion of the incubation, the plates were centrifuged at 1,000× gravity for 3 minutes. 100 μl of supernatant were transferred to a new plate and the absorbance was read at 412 nm. Data was fit with a log-logit formula producing a dose-response curve and IC50.
“IC50” refers to the half maximal inhibitory concentration, where the value is the concentration of the inhibitor needed to reduce red blood cell hemolysis by half. Where replicate analysis was conducted, average IC50 values are provided along with standard deviation (SD) values.

[11] = system: CD59-deficient RBCs from patients with paroxysmal nocturnal hemoglobinuria (PNH); assay: Hemolysis inhibition with PNH patient cells, flow cytometry for CD59 and plate assay (Example 6); format: cell-based, human; conditions: FIG. 2
Description: Flow cytometry studies were carried out to assess the ability of compounds to inhibit hemolysis of CD59-deficient RBCs from patients with paroxysmal nocturnal hemoglobinuria (PNH). […] To induce hemolysis, donor-matched serum was acidified to pH 6.4 with HCl. Compounds, serum, and RBCs, 2.5% volume per volume (v/v), were incubated for 18 hours at 37° C. After incubation, cells were washed and re-suspended in 1 ml fluorescence-associated cell sorting (FACS) buffer (0.1% BSA IgG-free in PBS, 0.1% Sodium Azide). Then, anti-CD59 antibody conjugated with phycoerythrin was added at a final concentration of 0.25 μg/ml to 100 μl of cell suspension and incubated at 4° C. for 30 minutes. Cells were then washed twice with cold FACS buffer, re-suspended in FACS buffer and analyzed with a BD Accuri C6 Flow Cytometer (BD Biosciences, San Jose, Calif.) for CD59 levels. The level of CD59-positive cells was monitored as a measure of complement-mediated hemolysis of PNH type III cells. A negative control using non-acidified serum was used to establish a baseline of CD59 expression under non-hemolytic conditions (FIG. 1A).

Human C5 [12] = molecular target: T1, Human C5; assay: Hemolysis assay, luminescent, classical complement pathway (Example 4, Table 7); format: cell-based; conditions: sheep EA cells, 1.5% C5-depleted human serum, 0.5 nM human C5, luminescence readout
Text: as §4

[13] = Drug-Metabolism-and-Pharmacokinetics (DMPK), single IV and oral dose in rats (Example 5); conditions: rat, in vivo; fasted male Sprague Dawley rats, 1 mg/kg IV and 10 mg/kg PO, 5% DMSO: 20% HP-Beta-CD
Description: Single intravenous (IV) and oral dose (P0, per oral) administration of C5 inhibitors were carried out in rats. Rats were then analyzed for Drug-Metabolism-and-Pharmacokinetic (DMPK) properties, used to determine the pharmacokinetics and oral bioavailability of the C5 inhibitors.
SM0011 was formulated as a clear solution at 1 mg/mL in 5% DMSO: 20% HP-Beta-CD. Fasted male Sprague Dawley rats were dosed with the solution at 1 MPK (mg/kg) IV and 10 MPK (mg/kg) PO. Analysis of the DMPK properties of the compound were used to determine the bioavailability.

T2 sequence (P01031 19-1676): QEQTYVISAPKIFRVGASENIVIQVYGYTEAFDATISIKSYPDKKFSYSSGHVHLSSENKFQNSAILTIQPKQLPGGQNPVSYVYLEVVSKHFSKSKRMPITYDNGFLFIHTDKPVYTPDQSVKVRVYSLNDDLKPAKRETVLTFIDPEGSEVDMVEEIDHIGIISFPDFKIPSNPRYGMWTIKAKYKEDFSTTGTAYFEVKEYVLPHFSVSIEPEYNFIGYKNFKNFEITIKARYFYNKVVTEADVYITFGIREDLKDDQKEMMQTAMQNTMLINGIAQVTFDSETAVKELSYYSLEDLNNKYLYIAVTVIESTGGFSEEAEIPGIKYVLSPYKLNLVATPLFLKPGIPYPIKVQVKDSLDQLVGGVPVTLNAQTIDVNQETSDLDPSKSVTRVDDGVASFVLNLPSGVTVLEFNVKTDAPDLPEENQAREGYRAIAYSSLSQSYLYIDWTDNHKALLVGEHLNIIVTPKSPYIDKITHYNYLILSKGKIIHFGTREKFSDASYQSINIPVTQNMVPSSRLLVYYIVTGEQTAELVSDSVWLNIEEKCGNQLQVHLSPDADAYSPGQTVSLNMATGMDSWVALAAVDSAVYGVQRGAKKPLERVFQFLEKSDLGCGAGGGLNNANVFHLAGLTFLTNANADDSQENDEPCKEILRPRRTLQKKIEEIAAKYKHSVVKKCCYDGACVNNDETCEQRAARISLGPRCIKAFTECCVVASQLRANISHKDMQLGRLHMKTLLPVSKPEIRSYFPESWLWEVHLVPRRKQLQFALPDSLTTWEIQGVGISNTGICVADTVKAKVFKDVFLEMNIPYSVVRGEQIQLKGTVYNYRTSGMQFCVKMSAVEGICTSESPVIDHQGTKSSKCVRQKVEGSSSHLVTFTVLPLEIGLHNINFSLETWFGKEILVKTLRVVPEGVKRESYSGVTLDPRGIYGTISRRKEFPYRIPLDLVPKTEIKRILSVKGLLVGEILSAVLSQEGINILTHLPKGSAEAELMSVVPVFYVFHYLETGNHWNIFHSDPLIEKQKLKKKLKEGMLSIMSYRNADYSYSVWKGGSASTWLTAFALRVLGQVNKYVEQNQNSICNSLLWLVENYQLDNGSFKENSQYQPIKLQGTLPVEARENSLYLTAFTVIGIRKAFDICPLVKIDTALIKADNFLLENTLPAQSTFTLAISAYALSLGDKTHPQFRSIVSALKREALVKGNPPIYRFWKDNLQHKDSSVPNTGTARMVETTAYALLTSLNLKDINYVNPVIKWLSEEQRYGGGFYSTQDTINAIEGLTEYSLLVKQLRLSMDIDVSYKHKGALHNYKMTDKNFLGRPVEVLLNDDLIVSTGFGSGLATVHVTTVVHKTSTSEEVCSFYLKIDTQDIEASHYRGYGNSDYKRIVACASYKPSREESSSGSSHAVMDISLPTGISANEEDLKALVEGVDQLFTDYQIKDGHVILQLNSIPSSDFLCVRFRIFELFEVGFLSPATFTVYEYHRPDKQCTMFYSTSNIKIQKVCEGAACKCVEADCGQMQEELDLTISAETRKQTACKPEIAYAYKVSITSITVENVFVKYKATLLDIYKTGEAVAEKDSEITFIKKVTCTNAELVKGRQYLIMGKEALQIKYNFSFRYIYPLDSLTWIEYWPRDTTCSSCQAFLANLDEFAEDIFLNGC
T1 sequence (P01031 19-1676): as above
Sequence of purified human C5 (P01031 19-1676): as above

| Compound | solubility kinetic [2] [µM] | Papp A→B at 3 μM [3] [×10⁻⁶ cm/s] | efflux ratio at 3 μM [4] | further results |
| --- | --- | --- | --- | --- |
| COc1cc(CC(=O)N(C)C)ccc1CN1CCCN(c2ccc(OC)c(OCCCC(C)(F)F)c2)C1=O [CU0140] | 404 (≈ 216 µg/mL) | 26 | 63 | IC50 (Human C5 [1]): 15.8 nM |
| COc1cc(CC(=O)N2CCOCC2)ccc1CN1CCCN(c2ccc(OC)c(OCCCC(C)(F)F)c2)C1=O [CU0145] | 278 (≈ 160 µg/mL) | 16.8 | 83 | IC50 (Human C5 [1]): 15 nM |
| CCCCCOc1cc(N2CCCN(Cc3ccc(CNC(C)=O)cc3OC)C2=O)ccc1OC [CU0160] | 413 (≈ 200 µg/mL) | 21.6 | 61 | IC50 (Human C5 [1]): 23.5 nM |
| CCCCCOc1cc(N2CCCN(Cc3ccnc4c3c(Cl)cn4CC(=O)N(C)C)C2=O)ccc1OC [CU0261] | 31 (≈ 16.8 µg/mL) | 26.1 | 17 | IC50 (Human C5 [1]): 11 nM |
| CCCCCOc1cc(N2CCCN(Cc3ccnc4c3c(Cl)cn4CC(=O)N(C)CC#N)C2=O)ccc1OC [CU0529] | 50 (≈ 28.4 µg/mL) | 17.1 | 75 | Kd [5]: 0.322 nM |
| COc1cc(CC(=O)N(C)C)ccc1CN1CCCN(c2ccc(OC)c(OCCCC3CC3)c2)C1=O [CU0555] | – | 23 | 15 | Kd [5]: 1.06 nM |
| CCCCCOc1cc(N2CCCN(Cc3ccnc4c3c(Cl)cn4CC(=O)N(C)C)C2=O)ncc1OC [CU0558] | 271 (≈ 147 µg/mL) | 25.2 | 9 | Kd [5]: 0.152 nM |
| CCCCCOc1cc(N2CCCN(Cc3ccnc4c3c(Cl)cn4CC(=O)N3CCC3)C2=O)ccc1OC [CU0560] | 31 (≈ 17.2 µg/mL) | 23 | 23 | Kd [5]: 0.054 nM |
| CCCCCOc1cc(N2CC3(CC3)CN(Cc3ccccc3OC)C2=O)ccc1OC [SC0064] | – | – | – | Kd [6]: 11.1 nM; IC50 (Human C5 [7]): 23.7 nM |
| CCCCCOc1cc(N2CC3(COC3)CN(Cc3ccccc3OC)C2=O)ccc1OC [SC0066] | – | – | – | Kd [6]: 43.7 nM; IC50 (Human C5 [7]): 39.7 nM |
| COc1ccc(NC(=O)NC(CO)c2ccccc2O)cc1OCCCC(C)C (stereo not shown) [SM0001, 1-(2-hydroxy-1-(2-hydroxyphenyl)ethyl)-3-(4-methoxy-3-((4-methylpentyl)oxy)phenyl)urea] | – | – | – | Kd (Human C5 [10]): 49 nM; IC50 (purified human C5): 20.9 nM; inhibition of PNH patient hemolysis with increasing concentrations [11]: dose-dependent manner |
| COc1ccc(NC(=O)N[C@@H](CO)c2ccccc2)cc1OCCCC(C)C [SM0011] | – | – | – | Kd (Human C5 [10]): 157 nM; IC50 (purified human C5): 266 nM; IC50 (Human C5 [12]): 60.2 nM; bioavailability [13]: ~30% |

Continued, in another order:

| solubility kinetic [2] [µM] | Papp A→B at 3 μM [3] [×10⁻⁶ cm/s] | efflux ratio at 3 μM [4] | Compound | further results |
| --- | --- | --- | --- | --- |
| – | 14.3 | 62 | CCCCCOc1cc(N2CC[C@H](C)N(Cc3ccnc4c3c(Cl)cn4CC(=O)N3CC[C@H](N4CCOCC4)C3)C2=O)ccc1OC [SC0100] | IC50 (Human C5 [8]): 0.9 nM |
| – | 5.7 | 144 | COc1cc(CC(=O)N[C@@H]2CN(C)C[C@@H]2F)ccc1CN1C(=O)N(c2ccc(OC)c(OCCCC3CC3)c2)CC[C@@H]1C [SC0109] | IC50 (Human C5 [8]): 1.2 nM |
| – | 15.3 | 18 | CCCCCOc1cc(N2CC[C@@H](C)N(Cc3cccc4c3c(Cl)cn4CC(=O)N(C)C)C2=O)ccc1OC [SC0110] | IC50 (Human C5 [8]): 1.3 nM |
| 13 (≈ 7.22 µg/mL) | 16.4 | 12 | CCCCCOc1cc(N2CC[C@H](C)N(Cc3cccc4c3c(Cl)cn4CC(=O)N(C)C)C2=O)ccc1OC [SC0112] | Kd [9]: 0.28 nM; IC50 (Human C5 [8]): 1.3 nM |
| 96 (≈ 56.1 µg/mL) | 6.6 | 98 | CCCCCOc1cc(N2CC[C@H](C)N(Cc3ccnc4c3c(Cl)cn4CC(=O)N3CC(O)C3)C2=O)ccc1OC [SC0120] | Kd [9]: 0.01 nM; IC50 (Human C5 [8]): 1.5 nM |
